The record followed here is patent US20140179664A1, “Heterocyclyl Pyrimidine Analogues As JAK Inhibitors” (Cellzome Limited, priority 2011, published 2014).

Type in all cases: binding
For one experiment, the target named is T1, TYK2 (Homo sapiens, UniProt P29597).
T1 construct: endogenous in cells; host or cells: Molt4 (ATCC CRL-1582) and Ramos (ATCC CRL-1596), mixed lysate 1:2
The experiment in a line: Kinobeads assay, TYK2. The note with it: mixed Molt4/Ramos lysate, read-out: Inhibition values (IC50) TYK2. As to the method:
(§1) The compounds of the present invention as described in the previous examples were tested in a Kinobeads™ assay as described for ZAP-70 (WO-A 2007/137867). Briefly, test compounds (at various concentrations) and the affinity matrix with the immobilized aminopyrido-pyrimidine ligand 24 were added to cell lysate aliquots and allowed to bind to the proteins in the lysate sample. After the incubation time the beads with captured proteins were separated from the lysate. Bound proteins were then eluted and the presence of JAK1, JAK2, JAK3 and TYK2 was detected and quantified using specific antibodies in a dot blot procedure and the Odyssey infrared detection system. Dose response curves for individual kinases were generated and IC50 values calculated. Kinobeads™ assays for ZAP-70 (WO-A 2007/137867) and for kinase selectivity profiling (WO-A 2006/134056) have been previously described.
(§2) The affinity matrix was washed two times with 15 mL of lx DP buffer containing 0.2% NP40 (IGEPAL® CA-630, Sigma, #13021) and then resuspended in 1×DP buffer containing 0.2% NP40 (3% beads slurry).
(§3) 5×DP buffer: 250 mM Tris-HCl pH 7.4, 25% Glycerol, 7.5 mM MgCl2, 750 mM NaCl, 5 mM Na3VO4; filter the 5×DP buffer through a 0.22 μm filter and store in aliquots at −80° C. The 5×DP buffer is diluted with H2O to 1×DP buffer containing 1 mM DTT and 25 mM NaF.
(§4) Stock solutions of test compounds were prepared in DMSO. In a 96 well plate […] solution of diluted test compounds at 5 mM in DMSO were prepared. Starting with this solution a 1:3 dilution series (9 steps) was prepared. For control experiments (no test compound) a buffer containing 2% DMSO was used.
(§5) Molt4 cells (ATCC catalogue number CRL-1582) and Ramos cells (ATCC catalogue number CRL-1596) were grown in 1 L Spinner flasks (Integra Biosciences, #182101) in suspension in RPMI 1640 medium (Invitrogen, #21875-034) supplemented with 10% Fetal Bovine Serum (Invitrogen) at a density between 0.15×10^6 and 1.2×10^6 cells/mL. Cells were harvested by centrifugation, washed once with 1×PBS buffer (Invitrogen, #14190-094) and cell pellets were frozen in liquid nitrogen and subsequently stored at −80° C. Cells were homogenized in a Potter S homogenizer in lysis buffer: 50 mM Tris-HCl, 0.8% NP40, 5% glycerol, 150 mM NaCl, 1.5 mM MgCl2, 25 mM NaF, 1 mM sodium vanadate, 1 mM DTT, pH 7.5. One complete EDTA-free tablet (protease inhibitor cocktail, Roche Diagnostics, 1873580) per 25 mL buffer was added. The material was dounced 10 times using a mechanized POTTER S, transferred to 50 mL falcon tubes, incubated for 30 minutes on ice and spun down for 10 minutes at 20,000 g at 4° C. (10,000 rpm in Sorvall SLA600, precooled). The supernatant was transferred to an ultracentrifuge (UZ)-polycarbonate tube (Beckmann, 355654) and spun for 1 hour at 100.000 g at 4° C. (33.500 rpm in Ti50.2, precooled). The supernatant was transferred again to a fresh 50 mL falcon tube, the protein concentration was determined by a Bradford assay (BioRad) and samples containing 50 mg of protein per aliquot were prepared. The samples were immediately used for experiments or frozen in liquid nitrogen and stored frozen at −80° C.
(§6) Cell lysate (approximately 50 mg protein per plate) was thawed in a water bath at room temperature and then stored on ice. To the thawed cell lysate 1×DP 0.8% NP40 buffer containing protease inhibitors (1 tablet for 25 mL buffer; EDTA-free protease inhibitor cocktail; Roche Diagnostics 1873580) was added in order to reach a final protein concentration of 10 mg/mL total protein. The diluted cell lysate was stored on ice. Mixed Molt4/Ramos lysate was prepared by combining one volume of Molt4 lysate and two volumes of Ramos lysate (ratio 1:2).
(§7) To a 96 well filter plate (Multiscreen HTS, BV Filter Plates, Millipore #MSBVN1250) were added per well: 100 μL affinity matrix (3% beads slurry), […], of compound solution, and 50 μL of diluted lysate. […]

Another experiment has as its target T2, JAK2 (Homo sapiens, UniProt O60674).
T2 construct: endogenous in cells; host or cells: Molt4 (ATCC CRL-1582) and Ramos (ATCC CRL-1596), mixed lysate 1:2
As to the kind of experiment: Kinobeads assay, JAK2. The note with it: mixed Molt4/Ramos lysate, read-out: Inhibition values (IC50) JAK2. As to the method:
as §1, §2, §3, §4, §5, §6, §7

The target of another experiment is T3, JAK1 (Homo sapiens, UniProt P23458).
T3 construct: endogenous in cells; host or cells: Molt4 (ATCC CRL-1582) and Ramos (ATCC CRL-1596), mixed lysate 1:2
The experiment in a line: Kinobeads assay, JAK1. The note with it: mixed Molt4/Ramos lysate, read-out: Inhibition values (IC50) JAK1. The procedure:
After the incubation time the beads with captured proteins were separated from the lysate. Bound proteins were then eluted and the presence of JAK1, JAK2, JAK3 and TYK2 was detected and quantified using specific antibodies in a dot blot procedure and the Odyssey infrared detection system. Dose response curves for individual kinases were generated and IC50 values calculated.
as §3
Stock solutions of test compounds were prepared in DMSO. […] Starting with this solution a 1:3 dilution series (9 steps) was prepared. For control experiments (no test compound) a buffer containing 2% DMSO was used.
Cells were homogenized in a Potter S homogenizer in lysis buffer: 50 mM Tris-HCl, 0.8% NP40, 5% glycerol, 150 mM NaCl, 1.5 mM MgCl2, 25 mM NaF, 1 mM sodium vanadate, 1 mM DTT, pH 7.5. […] The material was dounced 10 times using a mechanized POTTER S, transferred to 50 mL falcon tubes, incubated for 30 minutes on ice and spun down for 10 minutes at 20,000 g at 4° C. (10,000 rpm in Sorvall SLA600, precooled). […] (33.500 rpm in Ti50.2, precooled). The supernatant was transferred again to a fresh 50 mL falcon tube, the protein concentration was determined by a Bradford assay (BioRad) and samples containing 50 mg of protein per aliquot were prepared. The samples were immediately used for experiments or frozen in liquid nitrogen and stored frozen at −80° C.
Cell lysate (approximately 50 mg protein per plate) was thawed in a water bath at room temperature and then stored on ice. […] The diluted cell lysate was stored on ice. Mixed Molt4/Ramos lysate was prepared by combining one volume of Molt4 lysate and two volumes of Ramos lysate (ratio 1:2).
Plates were sealed and incubated for 3 hours in a cold room on a plate shaker (Heidolph tiramax 1000) at 750 rpm. Afterwards the plate was washed 3 times with 230 μL washing buffer (1×DP 0.4% NP40). […] The eluate was frozen quickly at −80° C. and stored at −20° C.
Afterwards the membrane was washed twice for 10 minutes with PBS buffer containing 0.2% Tween 20 at room temperature. […] Afterwards the membrane was washed twice for 10 minutes each with 1×PBS buffer containing 0.2% Tween 20 at room temperature. Then the membrane was rinsed once with PBS buffer to remove residual Tween 20. The membrane was kept in PBS buffer at 4° C. and then scanned with the Odyssey instrument. Fluorescence signals were recorded and analysed according to the instructions of the manufacturer.

T3 sequence (P23458 whole entry): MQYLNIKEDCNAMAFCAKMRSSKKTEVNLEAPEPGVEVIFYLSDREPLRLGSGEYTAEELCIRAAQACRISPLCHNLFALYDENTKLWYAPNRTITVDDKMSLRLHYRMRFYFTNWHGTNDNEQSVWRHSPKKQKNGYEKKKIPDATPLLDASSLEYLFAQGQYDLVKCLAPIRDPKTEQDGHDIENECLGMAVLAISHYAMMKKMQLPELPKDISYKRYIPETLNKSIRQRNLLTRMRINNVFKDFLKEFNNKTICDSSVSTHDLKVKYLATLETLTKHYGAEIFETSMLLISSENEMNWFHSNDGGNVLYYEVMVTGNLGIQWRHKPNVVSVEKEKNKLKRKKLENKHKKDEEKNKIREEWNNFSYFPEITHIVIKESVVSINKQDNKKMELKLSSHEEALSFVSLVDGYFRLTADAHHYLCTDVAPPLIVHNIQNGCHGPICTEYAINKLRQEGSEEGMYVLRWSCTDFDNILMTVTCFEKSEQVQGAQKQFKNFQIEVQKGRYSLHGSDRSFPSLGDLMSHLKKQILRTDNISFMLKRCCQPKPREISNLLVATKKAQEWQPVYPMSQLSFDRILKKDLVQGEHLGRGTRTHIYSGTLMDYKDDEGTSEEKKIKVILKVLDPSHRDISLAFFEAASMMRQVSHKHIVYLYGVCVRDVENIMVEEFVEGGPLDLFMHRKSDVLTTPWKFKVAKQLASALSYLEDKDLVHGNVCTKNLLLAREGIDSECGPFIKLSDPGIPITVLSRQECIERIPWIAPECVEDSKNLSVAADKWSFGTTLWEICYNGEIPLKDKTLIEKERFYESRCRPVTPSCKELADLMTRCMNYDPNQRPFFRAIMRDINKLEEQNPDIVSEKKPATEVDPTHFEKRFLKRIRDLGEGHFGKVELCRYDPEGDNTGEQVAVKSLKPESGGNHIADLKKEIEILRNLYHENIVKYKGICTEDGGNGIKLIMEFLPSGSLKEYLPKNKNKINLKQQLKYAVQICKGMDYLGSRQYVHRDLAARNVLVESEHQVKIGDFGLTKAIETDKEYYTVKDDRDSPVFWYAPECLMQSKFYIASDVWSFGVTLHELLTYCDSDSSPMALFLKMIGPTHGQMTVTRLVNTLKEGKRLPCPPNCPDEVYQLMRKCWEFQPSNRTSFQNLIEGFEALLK
T2 sequence (O60674 whole entry): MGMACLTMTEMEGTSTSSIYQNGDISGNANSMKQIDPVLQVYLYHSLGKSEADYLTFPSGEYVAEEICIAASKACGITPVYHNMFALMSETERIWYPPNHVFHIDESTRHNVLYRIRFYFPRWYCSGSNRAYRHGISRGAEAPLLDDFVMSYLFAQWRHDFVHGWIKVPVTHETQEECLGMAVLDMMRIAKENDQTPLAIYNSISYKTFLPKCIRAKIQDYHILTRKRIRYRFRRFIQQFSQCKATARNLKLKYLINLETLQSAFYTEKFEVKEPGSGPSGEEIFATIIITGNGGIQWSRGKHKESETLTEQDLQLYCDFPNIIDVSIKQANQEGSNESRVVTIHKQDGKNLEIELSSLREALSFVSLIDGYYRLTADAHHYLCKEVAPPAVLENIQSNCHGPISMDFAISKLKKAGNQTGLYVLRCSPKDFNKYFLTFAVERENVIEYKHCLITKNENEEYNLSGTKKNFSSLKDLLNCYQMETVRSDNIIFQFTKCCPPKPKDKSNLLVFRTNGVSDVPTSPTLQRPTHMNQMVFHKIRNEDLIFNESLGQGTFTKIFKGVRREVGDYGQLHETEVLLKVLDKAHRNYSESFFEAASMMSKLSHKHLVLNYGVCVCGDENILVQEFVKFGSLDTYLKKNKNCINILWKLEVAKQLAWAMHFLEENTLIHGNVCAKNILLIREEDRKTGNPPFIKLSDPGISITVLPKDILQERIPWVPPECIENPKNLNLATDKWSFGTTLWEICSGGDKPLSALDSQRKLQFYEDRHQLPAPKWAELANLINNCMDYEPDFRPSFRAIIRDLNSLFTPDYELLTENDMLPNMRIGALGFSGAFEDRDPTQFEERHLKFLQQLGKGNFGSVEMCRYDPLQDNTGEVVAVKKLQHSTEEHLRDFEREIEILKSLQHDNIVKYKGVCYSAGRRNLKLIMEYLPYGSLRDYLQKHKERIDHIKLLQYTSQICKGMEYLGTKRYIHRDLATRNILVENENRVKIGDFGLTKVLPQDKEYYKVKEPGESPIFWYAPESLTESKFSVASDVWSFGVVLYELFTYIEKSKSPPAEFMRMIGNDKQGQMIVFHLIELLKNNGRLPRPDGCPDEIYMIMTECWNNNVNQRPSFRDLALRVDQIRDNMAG
T1 sequence (P29597 whole entry): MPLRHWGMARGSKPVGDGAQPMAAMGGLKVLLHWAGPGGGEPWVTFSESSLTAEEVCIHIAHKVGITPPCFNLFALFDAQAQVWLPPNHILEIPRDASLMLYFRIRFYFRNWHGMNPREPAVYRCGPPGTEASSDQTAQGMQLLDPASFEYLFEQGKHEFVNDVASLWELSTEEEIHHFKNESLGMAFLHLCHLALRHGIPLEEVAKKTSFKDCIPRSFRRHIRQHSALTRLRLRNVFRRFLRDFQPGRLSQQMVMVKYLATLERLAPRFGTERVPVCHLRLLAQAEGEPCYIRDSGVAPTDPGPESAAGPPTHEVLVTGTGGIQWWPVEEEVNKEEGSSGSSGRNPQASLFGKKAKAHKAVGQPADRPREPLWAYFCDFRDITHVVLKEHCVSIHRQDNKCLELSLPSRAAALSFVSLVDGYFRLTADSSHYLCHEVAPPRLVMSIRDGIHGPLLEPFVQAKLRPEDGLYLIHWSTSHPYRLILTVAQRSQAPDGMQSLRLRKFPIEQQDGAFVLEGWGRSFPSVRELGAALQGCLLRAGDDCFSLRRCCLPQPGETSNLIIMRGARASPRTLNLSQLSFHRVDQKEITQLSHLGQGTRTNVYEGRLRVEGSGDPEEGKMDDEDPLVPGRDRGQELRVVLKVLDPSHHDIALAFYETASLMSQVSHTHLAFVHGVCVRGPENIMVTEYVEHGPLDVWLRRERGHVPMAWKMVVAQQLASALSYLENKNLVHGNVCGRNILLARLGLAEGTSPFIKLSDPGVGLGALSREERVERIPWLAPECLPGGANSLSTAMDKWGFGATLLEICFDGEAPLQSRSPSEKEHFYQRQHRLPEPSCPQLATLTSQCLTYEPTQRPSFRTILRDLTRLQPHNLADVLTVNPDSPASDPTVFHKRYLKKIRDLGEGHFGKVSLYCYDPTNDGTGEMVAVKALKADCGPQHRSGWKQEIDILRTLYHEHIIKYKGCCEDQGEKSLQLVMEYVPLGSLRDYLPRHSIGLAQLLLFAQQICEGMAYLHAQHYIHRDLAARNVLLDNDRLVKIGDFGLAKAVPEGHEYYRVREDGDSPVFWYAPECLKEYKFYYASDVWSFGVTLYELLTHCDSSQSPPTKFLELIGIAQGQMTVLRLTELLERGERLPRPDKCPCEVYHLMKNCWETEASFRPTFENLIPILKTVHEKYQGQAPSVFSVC

By IC50 is commonly meant the midpoint of a concentration-inhibition curve. For `Cn1cc(Nc2ncc(Cl)c(N[C@H](CO)c3ccccc3)n2)cn1` [Compound 4], the IC50 at TYK2, at JAK2 and on JAK1 was 1 to 10 µM each time.
Turning to `CC[C@@H](Nc1nc(Nc2cnn(C)c2)ncc1Cl)c1ccccc1` [Compound 5], the IC50 at TYK2 is not below 10 µM; at JAK2, 1 to 10 µM; on JAK1 it was 1 to 10 µM.
As to `Cn1cc(Nc2ncc(C(F)(F)F)c(N[C@H](CO)c3ccccc3)n2)cn1` [Compound 6], the IC50 was not below 10 µM on TYK2, not below 10 µM at JAK2 and more than 10 µM on JAK1.
On to `Cn1cc(Nc2ncc(Cl)c(NC(C)(CO)c3ccccc3)n2)cn1` (stereo not drawn) [Compound 7], for which the IC50 on TYK2 was 1 to 10 µM; on JAK2 it was not below 10 µM; on JAK1 it was 1 to 10 µM.
Consider `Cn1cc(Nc2ncc(C(F)(F)F)c(NC(C)(CO)c3ccccc3)n2)cn1` (stereo not drawn) [Compound 8], for which the IC50 at TYK2 is not below 10 µM; on JAK2, not below 10 µM; on JAK1 it was more than 10 µM.
On to `OCCn1cc(Nc2ncc(Cl)c(N[C@H](CO)c3ccccc3)n2)cn1` [Compound 9], for which the values for the IC50 on TYK2, at JAK2 and on JAK1 were 1 to 10 µM, 1 to 10 µM and 0.1 to 1 µM, respectively.
As to `OCCn1cc(Nc2ncc(F)c(N[C@H](CO)c3ccccc3)n2)cn1` [Compound 10], the IC50 was 1 to 10 µM on TYK2, not below 10 µM at JAK2 and 1 to 10 µM on JAK1.
For the compound `Cn1cc(-c2cccc(C(CO)Nc3nc(Nc4cnn(CCO)c4)ncc3Cl)c2)cn1` (stereo not drawn) [Compound 94], the results for the IC50 on TYK2, at JAK2 and at JAK1 were not below 10 µM, not below 10 µM and 1 to 10 µM, respectively.
For `CCn1cc(Nc2ncc(Cl)c(N[C@H](CO)c3ccccc3OC)n2)cn1` [Compound 95], the results for the IC50 at TYK2, at JAK2 and on JAK1 were 1 to 10 µM, 0.1 to 1 µM and 0.1 to 1 µM, respectively.
`CCn1cc(Nc2ncc(Cl)c(N[C@H](CO)c3cccc(OC)c3)n2)cn1` [Compound 96]: the IC50 is 1 to 10 µM at TYK2, not below 10 µM on JAK2 and 1 to 10 µM at JAK1.
Turning to `CCn1cc(Nc2ncc(Cl)c(N[C@H](CO)c3cccnc3)n2)cn1` [Compound 97], the IC50 on TYK2, at JAK2 and on JAK1 was 1 to 10 µM in each case.
Turning to `CNC(=O)Cn1cc(Nc2ncc(Cl)c(N[C@H](CO)c3ccccc3OC)n2)cn1` [Compound 98], the figures for the IC50 on TYK2, on JAK2 and on JAK1 were 0.1 to 1 µM, 1 to 10 µM and 0.1 to 1 µM, respectively.
Consider `CNC(=O)Cn1cc(Nc2ncc(Cl)c(N[C@H](CO)c3cccc(OC)c3)n2)cn1` [Compound 99], for which the figures for the IC50 at TYK2, on JAK2 and on JAK1 were 1 to 10 µM, not below 10 µM and 1 to 10 µM, respectively.
For `CNC(=O)Cn1cc(Nc2ncc(Cl)c(N[C@H](CO)c3ccccc3F)n2)cn1` [Compound 100], the IC50 on TYK2 lay in the range of 1 to 10 µM; on JAK2 it was 1 to 10 µM; at JAK1 it was 0.1 to 1 µM.
On to `COc1ccccc1[C@@H](CO)Nc1nc(Nc2cnn(CC(=O)N3CCOCC3)c2)ncc1Cl` [Compound 101], for which the IC50 is less than 0.1 µM at TYK2, 1 to 10 µM on JAK2 and 0.1 to 1 µM on JAK1.
`COc1cccc([C@@H](CO)Nc2nc(Nc3cnn(CC(=O)N4CCOCC4)c3)ncc2Cl)c1` [Compound 102]: the IC50 is 0.1 to 1 µM on TYK2, not below 10 µM on JAK2 and 0.1 to 1 µM on JAK1.
On to `O=C(Cn1cc(Nc2ncc(Cl)c(N[C@H](CO)c3ccccc3F)n2)cn1)N1CCOCC1` [Compound 103], for which the concentration for half-maximal inhibition (IC50) is 0.1 to 1 µM on TYK2, 1 to 10 µM on JAK2 and 0.1 to 1 µM on JAK1.
Regarding `O=C(Cn1cc(Nc2ncc(Cl)c(N[C@H](CO)c3cccnc3)n2)cn1)N1CCOCC1` [Compound 104], the figures for the IC50 at TYK2, at JAK2 and at JAK1 were 0.1 to 1 µM, 1 to 10 µM and 0.1 to 1 µM, respectively.
`COc1ccccc1[C@@H](CO)Nc1nc(Nc2cnn(C(C)C)c2)ncc1Cl` [Compound 105]: the results for the IC50 at TYK2, on JAK2 and on JAK1 were 1 to 10 µM, 0.1 to 1 µM and 1 to 10 µM, respectively.
Regarding `COc1cccc([C@@H](CO)Nc2nc(Nc3cnn(C(C)C)c3)ncc2Cl)c1` [Compound 106], the IC50 at TYK2 was 1 to 10 µM; on JAK2, 1 to 10 µM; on JAK1, more than 10 µM.
On to `CC(C)n1cc(Nc2ncc(Cl)c(N[C@H](CO)c3cccnc3)n2)cn1` [Compound 107], for which the IC50 at TYK2, on JAK2 and at JAK1 was 1 to 10 µM throughout.
As for `NC(=O)Cn1cc(Nc2ncc(F)c(N[C@H](CO)c3ccccc3)n2)cn1` [Compound 108], the results for the IC50 on TYK2, at JAK2 and on JAK1 were 1 to 10 µM, not below 10 µM and 1 to 10 µM, respectively.
`CCn1cc(Nc2ncc(Cl)c(N[C@H](CO)c3ccccc3F)n2)cn1` [Compound 109]: the IC50 on TYK2, at JAK2 and on JAK1 was 1 to 10 µM throughout.
As for `CC(C)n1cc(Nc2ncc(Cl)c(N[C@H](CO)c3ccccc3F)n2)cn1` [Compound 110], the IC50 at TYK2 lay in the range of 1 to 10 µM; at JAK2, 0.1 to 1 µM; on JAK1 it was 1 to 10 µM.
For `CNC(=O)Cn1cc(Nc2ncc(F)c(N[C@H](CO)c3ccccc3)n2)cn1` [Compound 111], the IC50 at TYK2 is 1 to 10 µM; at JAK2, not below 10 µM; on JAK1 it was 1 to 10 µM.
`O=C(Cn1cc(Nc2ncc(F)c(N[C@H](CO)c3ccccc3)n2)cn1)N1CCOCC1` [Compound 112]: the IC50 at TYK2 is 0.1 to 1 µM; on JAK2, not below 10 µM; on JAK1, 1 to 10 µM.
